Paper PMC4564614, “Purification and Characterization of Asparaginase from Phaseolus vulgaris Seeds” (Evidence-based Complementary and Alternative Medicine : eCAM, 2015)

Tested on: T1, L-asparaginase I (asparaginase I)
T1 construct: gene ASPG1
Details: 50 mM Tris-HCl pH 8.0, 50 mM KCl, 37 °C (standard assay); L-asparagine 2-20 mM

`NC(=O)C[C@H](N)C(=O)O` [L-asparagine] was tested, and the Km was 6.72 mM.
